% of control and % of inhibition data for four compounds are collected here from ChEMBL document CHEMBL5465560, “Selectivity Literature for EUbOPEN Chemogenomic Library” (2024).

Assay [1] addresses T1, cGMP-dependent protein kinase 1 (Homo sapiens) (UniProt Q13976).
T1 sequence (whole entry): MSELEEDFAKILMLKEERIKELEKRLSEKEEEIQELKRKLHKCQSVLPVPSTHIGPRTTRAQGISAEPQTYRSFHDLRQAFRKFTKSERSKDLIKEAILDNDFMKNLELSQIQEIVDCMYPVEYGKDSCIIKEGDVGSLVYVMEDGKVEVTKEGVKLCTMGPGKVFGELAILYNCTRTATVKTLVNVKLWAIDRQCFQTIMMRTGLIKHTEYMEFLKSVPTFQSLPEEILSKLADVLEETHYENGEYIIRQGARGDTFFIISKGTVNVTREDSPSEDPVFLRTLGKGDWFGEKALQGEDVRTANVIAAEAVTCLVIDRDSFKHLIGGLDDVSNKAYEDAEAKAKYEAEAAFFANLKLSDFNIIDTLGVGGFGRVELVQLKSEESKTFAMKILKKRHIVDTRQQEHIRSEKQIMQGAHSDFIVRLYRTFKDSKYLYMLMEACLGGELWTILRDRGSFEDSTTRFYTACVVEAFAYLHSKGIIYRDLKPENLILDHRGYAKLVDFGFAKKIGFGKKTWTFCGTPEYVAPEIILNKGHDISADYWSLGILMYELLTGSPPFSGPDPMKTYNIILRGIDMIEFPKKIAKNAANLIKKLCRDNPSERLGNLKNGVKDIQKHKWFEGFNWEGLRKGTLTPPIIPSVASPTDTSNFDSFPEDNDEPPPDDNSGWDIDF
Put plainly: Selectivity interaction (KinomeScan (DiscoverX)) EUB0000595a PRKG1. The conditions noted are these: at 10 µM.

In assay [2] the target is Phosphatidylinositol 4-phosphate 5-kinase type-1 gamma (Homo sapiens) (UniProt O60331). The assay can be described thus: Selectivity interaction (KinomeScan (DiscoverX)) EUB0000607a PIP5K1C. The note with it: at 10 µM.
Chain of Phosphatidylinositol 4-phosphate 5-kinase type-1 gamma (Homo sapiens) (O60331 whole entry): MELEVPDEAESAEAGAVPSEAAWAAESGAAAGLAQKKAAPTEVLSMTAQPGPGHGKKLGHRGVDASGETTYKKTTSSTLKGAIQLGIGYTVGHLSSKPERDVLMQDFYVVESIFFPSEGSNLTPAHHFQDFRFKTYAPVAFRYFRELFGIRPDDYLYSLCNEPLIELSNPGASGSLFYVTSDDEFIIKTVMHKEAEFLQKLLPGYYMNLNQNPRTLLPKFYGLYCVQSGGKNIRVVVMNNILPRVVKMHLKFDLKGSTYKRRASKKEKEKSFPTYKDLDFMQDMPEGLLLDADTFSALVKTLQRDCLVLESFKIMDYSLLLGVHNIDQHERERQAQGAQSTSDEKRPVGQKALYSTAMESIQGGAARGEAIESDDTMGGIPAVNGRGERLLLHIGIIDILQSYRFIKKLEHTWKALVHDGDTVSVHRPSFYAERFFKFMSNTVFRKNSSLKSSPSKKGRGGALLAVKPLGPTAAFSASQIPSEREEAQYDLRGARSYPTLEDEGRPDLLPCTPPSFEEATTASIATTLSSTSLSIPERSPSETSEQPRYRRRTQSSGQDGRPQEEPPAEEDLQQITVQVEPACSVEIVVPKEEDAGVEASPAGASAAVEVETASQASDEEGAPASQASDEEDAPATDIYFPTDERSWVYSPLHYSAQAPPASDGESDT
The target in assay [3] is T2, Serine/threonine-protein kinase BRSK2 (Homo sapiens) (UniProt Q8IWQ3).
T2 sequence (whole entry): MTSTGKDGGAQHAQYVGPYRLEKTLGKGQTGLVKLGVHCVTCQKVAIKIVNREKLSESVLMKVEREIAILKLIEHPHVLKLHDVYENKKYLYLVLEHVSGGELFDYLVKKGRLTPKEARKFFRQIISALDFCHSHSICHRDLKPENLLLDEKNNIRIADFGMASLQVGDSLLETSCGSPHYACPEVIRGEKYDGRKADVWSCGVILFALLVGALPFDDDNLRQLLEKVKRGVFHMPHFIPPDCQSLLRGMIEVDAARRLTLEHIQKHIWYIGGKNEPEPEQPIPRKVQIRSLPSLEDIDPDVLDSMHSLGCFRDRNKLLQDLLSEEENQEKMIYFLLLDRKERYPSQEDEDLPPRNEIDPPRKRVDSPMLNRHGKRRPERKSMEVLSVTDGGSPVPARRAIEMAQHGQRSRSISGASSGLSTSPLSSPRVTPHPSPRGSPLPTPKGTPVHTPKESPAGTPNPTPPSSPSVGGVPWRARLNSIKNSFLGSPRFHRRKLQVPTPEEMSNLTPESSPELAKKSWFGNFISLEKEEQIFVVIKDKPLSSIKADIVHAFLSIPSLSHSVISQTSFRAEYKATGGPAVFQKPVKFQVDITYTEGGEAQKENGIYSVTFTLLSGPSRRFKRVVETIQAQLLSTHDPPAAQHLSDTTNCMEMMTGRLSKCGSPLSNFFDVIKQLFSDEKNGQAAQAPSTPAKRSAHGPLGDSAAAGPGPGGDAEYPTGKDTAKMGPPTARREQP
The conditions noted are these: at 10 µM.

Assay [4] addresses T3, Serine/threonine-protein kinase Nek9 (Homo sapiens) (UniProt Q8TD19).
T3 sequence (whole entry): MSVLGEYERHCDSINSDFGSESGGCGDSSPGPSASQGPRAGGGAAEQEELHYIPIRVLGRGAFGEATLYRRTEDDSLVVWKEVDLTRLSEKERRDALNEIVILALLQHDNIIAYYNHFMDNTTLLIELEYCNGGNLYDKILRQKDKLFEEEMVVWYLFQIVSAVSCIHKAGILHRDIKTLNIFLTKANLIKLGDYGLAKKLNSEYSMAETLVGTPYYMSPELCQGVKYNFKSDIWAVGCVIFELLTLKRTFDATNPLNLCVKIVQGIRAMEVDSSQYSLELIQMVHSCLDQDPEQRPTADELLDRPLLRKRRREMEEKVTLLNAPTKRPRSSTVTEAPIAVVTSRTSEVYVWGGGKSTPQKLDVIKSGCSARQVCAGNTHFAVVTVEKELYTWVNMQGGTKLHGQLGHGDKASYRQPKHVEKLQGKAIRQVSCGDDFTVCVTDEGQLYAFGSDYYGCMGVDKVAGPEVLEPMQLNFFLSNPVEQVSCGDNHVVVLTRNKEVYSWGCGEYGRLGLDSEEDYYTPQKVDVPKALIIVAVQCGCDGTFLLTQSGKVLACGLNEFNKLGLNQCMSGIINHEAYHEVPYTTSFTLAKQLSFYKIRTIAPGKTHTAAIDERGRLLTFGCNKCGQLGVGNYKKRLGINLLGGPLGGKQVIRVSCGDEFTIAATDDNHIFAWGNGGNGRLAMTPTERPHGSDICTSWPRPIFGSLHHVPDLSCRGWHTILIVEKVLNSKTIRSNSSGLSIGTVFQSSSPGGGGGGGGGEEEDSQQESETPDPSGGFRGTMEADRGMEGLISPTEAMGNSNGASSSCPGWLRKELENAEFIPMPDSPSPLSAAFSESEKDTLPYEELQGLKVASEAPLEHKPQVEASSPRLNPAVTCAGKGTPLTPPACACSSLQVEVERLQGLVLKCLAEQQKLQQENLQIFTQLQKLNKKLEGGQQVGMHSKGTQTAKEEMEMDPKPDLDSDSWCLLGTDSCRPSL
Put plainly: Selectivity interaction (ActivX KiNativ screen (kinase selectivity in THP-1 cell lysates)) EUB0000639a NEK9. Type of assay: subcellular. The conditions noted are these: lysate, at 5 µM.

Regarding `COCC(=O)NC/C=C/c1ccc2ncnc(Nc3ccc(Oc4ccc(C)nc4)c(C)c3)c2c1` [CP-724714], the % of control in assay [1] was found to be 100%. In assay [2], `CNC(=O)Nc1ccc(-c2nc(N3CC4CCC(C3)O4)c3cnn(C4CCC5(CC4)OCCO5)c3n2)cc1` came in with a % of control of 100%. Consider `Cc1cc([C@@H](C)Nc2ccccc2C(=O)O)c2nc(N3CCOCC3)cc(=O)n2c1` [AZD-6482], for which the % of control in assay [3] is 100%. In assay [4], `CC[C@@H]1[C@H](F)C(=O)N[C@@H]1COc1nccc2cc(C(N)=O)c(OC)cc12` [ZIMLOVISERTIB] showed a % of inhibition of 8.8%.
